Consider three molecules from ChEMBL document CHEMBL6096732 (J Med Chem, 2025).

In series [1] the test system is 4T1. Briefly: Antitumor activity against mouse 4T1 cells implanted in female BALB/c mouse model assessed as decrease in PAPR1 expression in tumor administrated orally as once daily dose via gavage for 14 days by Western blot analysis. As to conditions: route po, time 14.0 day. Format: functional, cell-based. In general terms: A western blot detects proteins with antibodies after separation by electrophoresis.

Series [2] concerns B16-F10. Briefly: Downregulation of PARP1 expression in mouse B16-F10 cells at 2 uM incubated for 24 hrs by Western blot analysis. Format: functional, cell-based.
For series [3], the system named is B16-F10. The series is described as follows: Induction of DNA damage in mouse B16-F10 cells assessed as increase in gamma-H2AX expression at 2 uM incubated for 24 hrs by Western blot analysis. The format is functional, cell-based.
For series [4], the system named is 4T1. The series is described as follows: Antitumor activity against mouse 4T1 cells implanted in female BALB/c mouse model assessed as induction of DNA damage by measuring increase in gamma-H2AX expression in tumor administrated orally as once daily dose via gavage for 14 days by Western blot analysis. Format: functional, cell-based. The following applies: route po, time 14.0 day.

In series [5] the test system is 4T1. The series is described as follows: Induction of DNA damage in mouse 4T1 cells assessed as increase in gamma-H2AX expression at 2 uM incubated for 24 hrs by Western blot analysis. The format is functional, cell-based.
Series [6] is described as follows: Toxicity in female BALB/c mouse model implanted with mouse 4T1 cells assessed as effect on body weight administrated orally as once daily dose via gavage for 14 days. The following applies: in vivo, po, 336 h, time 14 day.
Series [7] relates to 4T1. The series is described as follows: Downregulation of PARP1 expression in mouse 4T1 cells at 2 uM incubated for 24 hrs by Western blot analysis. The format is functional, cell-based.
The test system of series [8] is 4T1. Briefly: Antitumor activity against mouse 4T1 cells implanted in female BALB/c mouse model assessed as tumor growth inhibition administrated orally as once daily dose via gavage for 14 days relative to control. As to conditions: route po; time 14 day. Format: functional.
The subject of series [9] is Mus musculus. The series is described as follows: Immunomodulatory activity in male C57BL/6 mouse model implanted with mouse B16-F10 cells assessed as increase in CD3+ CD8+ T cells in tumor at 20 mg/kg, po administered once daily for 14 days by flow cytometric analysis (reference value: 3.2 %). Format: functional. As to conditions: time 14 day. (A flow cytometer gives signals particle by particle.)

For series [10], the system named is B16-F10. Briefly: Antitumor activity against mouse B16-F10 cells implanted in male C57BL/6 mouse model assessed as tumor growth inhibition at 20 mg/kg, po administered once daily via gavage for 14 days relative to control. As to conditions: B16-F10, 336 h, time 14 day, read-out: TGI. The format is functional.
In series [11] the test system is Mus musculus. The series is described as follows: In vivo induction of PD-L1 degradation in male C57BL/6 mouse model implanted with mouse B16-F10 cells assessed as decrease in PD-L1 protein expression in tumor at 20 mg/kg, po administered once daily via gavage for 14 days by DAPI staining based immunofluorescence analysis. As to conditions: time 14.0 day. Format: functional, organism-based.

Series [12] has as its system Mus musculus. The series is described as follows: Immunomodulatory activity in male C57BL/6 mouse model implanted with mouse B16-F10 cells assessed as increase in CD3+ CD4+ T cells in tumor at 20 mg/kg, po administered once daily for 14 days by flow cytometric analysis (reference value: 3.1 %). Format: functional. The following applies: time 14 day.
Series [13] concerns the target T1, Histone deacetylase 3 (Mus musculus) (UniProt O88895).
T1 sequence (whole entry): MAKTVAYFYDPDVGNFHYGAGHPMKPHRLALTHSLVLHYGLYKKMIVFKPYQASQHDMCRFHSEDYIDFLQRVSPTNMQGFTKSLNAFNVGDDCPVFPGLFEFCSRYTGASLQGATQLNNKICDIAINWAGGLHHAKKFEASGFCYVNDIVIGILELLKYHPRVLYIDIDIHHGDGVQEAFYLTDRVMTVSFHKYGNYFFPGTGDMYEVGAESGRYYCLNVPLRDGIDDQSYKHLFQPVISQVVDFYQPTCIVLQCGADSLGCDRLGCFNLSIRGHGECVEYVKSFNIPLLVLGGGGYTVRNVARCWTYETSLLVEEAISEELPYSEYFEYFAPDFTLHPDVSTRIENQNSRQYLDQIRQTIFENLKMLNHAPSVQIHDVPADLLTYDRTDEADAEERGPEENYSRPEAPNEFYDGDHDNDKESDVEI
Briefly: In vivo inhibition of HDAC3 in male C57BL/6 mouse model implanted with mouse B16-F10 cells assessed as increase in acetylated histone H3 level in tumor at 20 mg/kg, po administered once daily via gavage for 14 days by DAPI staining based immunofluorescence analysis. The following applies: time 14.0 day. Format: functional, organism-based.

Series [14] in a line: Oral bioavailability in male C57BL/6 mouse at 20 mg/kg. Format: ADME, organism-based. As to conditions: in vivo.
Series [15] deals with T1, Histone deacetylase 3 (Mus musculus). Briefly: Inhibition of HDAC3 in mouse 4T1 cells assessed as increase in histone H3 acetylation level at 5 to 20 uM incubated for 24 hrs by Western blot analysis. The format is cell-based. As to conditions: dose 5-20 µM.
In series [16] the target is Histone deacetylase 3 (Homo sapiens, UniProt O15379). As to conditions: dose 500.0 nM, time 3.0 hrs.
Histone deacetylase 3, sequence (O15379 whole entry): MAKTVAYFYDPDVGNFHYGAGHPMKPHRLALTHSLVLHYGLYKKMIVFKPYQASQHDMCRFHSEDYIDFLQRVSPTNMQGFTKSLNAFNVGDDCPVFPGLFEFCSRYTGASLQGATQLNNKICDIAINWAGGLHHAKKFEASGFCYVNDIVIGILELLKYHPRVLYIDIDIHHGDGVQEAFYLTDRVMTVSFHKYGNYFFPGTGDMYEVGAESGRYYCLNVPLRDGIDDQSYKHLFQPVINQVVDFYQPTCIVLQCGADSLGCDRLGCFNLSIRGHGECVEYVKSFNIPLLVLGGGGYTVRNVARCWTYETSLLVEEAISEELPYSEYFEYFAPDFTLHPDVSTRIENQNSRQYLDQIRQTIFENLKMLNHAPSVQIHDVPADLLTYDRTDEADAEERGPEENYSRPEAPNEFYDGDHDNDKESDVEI
In series [17] the test system is Mus musculus. Briefly: Immunomodulatory activity in male C57BL/6 mouse model implanted with mouse B16-F10 cells assessed as increase in CD3+ CD4+ T cells in tumor at 50 mg/kg, po administered once daily for 14 days by flow cytometric analysis (reference value: 3.1 %). The following applies: time 14 day. Format: functional.
Series [18] deals with T1, Histone deacetylase 3 (Mus musculus). Briefly: Inhibition of HDAC3 in mouse B16-F10 cells assessed as increase in histone H3 acetylation level at 5 to 20 uM incubated for 24 hrs by Western blot analysis. The format is cell-based. The following applies: dose 5-20 µM.
Series [19] has the same target. The series is described as follows: In vivo inhibition of HDAC3 in male C57BL/6 mouse model implanted with mouse B16-F10 cells assessed as increase in acetylated histone H3 level at 50 mg/kg, po administered once daily via gavage for 14 days by Western blot analysis. Format: functional, organism-based. The following applies: time 14.0 day.
Series [20] relates to Mus musculus. Briefly: Immunomodulatory activity in male C57BL/6 mouse model implanted with mouse B16-F10 cells assessed as increase in CD3+ CD8+ T cells in tumor at 50 mg/kg, po administered once daily for 14 days by flow cytometric analysis (reference value: 3.2 %). As to conditions: time 14 day. Format: functional.
The target in series [21] is T1, Histone deacetylase 3 (Mus musculus). The series is described as follows: In vivo inhibition of HDAC3 in male C57BL/6 mouse model implanted with mouse B16-F10 cells assessed as increase in acetylated histone H3 level in tumor at 50 mg/kg, po administered once daily via gavage for 14 days by DAPI staining based immunofluorescence analysis. Format: functional, organism-based. The following applies: time 14.0 day.

The subject of series [22] is Mus musculus. Briefly: Effect on acetylated alpha-tubulin level in male C57BL/6 mouse tumor implanted with mouse B16-F10 cells at 50 mg/kg, po administered once daily via gavage for 14 days by Western blot analysis. The following applies: time 14.0 day. The format is functional, organism-based.

The source made the active and inactive calls. The calls are words filed in the database; no cut-off is given here.

Broadly, the TGI is how far tumour growth fell short of that in controls. Regarding `O=C(c1cc(Cc2n[nH]c(=O)c3ccccc23)ccc1F)N1CCN(C(=O)C2CC2)CC1` [OLAPARIB], the result in series [1], in series [2], in series [3], in series [4], in series [5] and in series [7] was Active. In [6], the Activity result is on record as “Non-toxic”. Besides, the TGI in [8] is on record as 36%.

For orientation: inhibition means how much of the control response was suppressed. In general, bioavailability refers to the share of a dose that reaches the circulation, judged against a reference dose that is usually intravenous. Higher therefore signals good availability. In the case of `Cc1c(COc2cc(OCc3cccc(C#N)c3)c(CNC(C)(C)C(=O)O)cc2Cl)cccc1-c1ccccc1`, the Activity in series [9] and in series [12] was 27% throughout. Besides, the inhibition in vivo at 20 mg/kg in series [10] was found to be 37%. Also, the outcome in series [11] was Active. In addition, the inhibition entry in series [13] is “inactive”. Also, the bioavailability in series [14] was under 5%.

Turning to `O=C(CCCCCCC(=O)Nc1ccccc1)NO` [VORINOSTAT], the inhibition entry in [15], in series [18], in [19] and in series [21] was “Active” throughout. In [16], this molecule gave an inhibition of 77%. The results for the Activity in [17] and in series [20] were 17% and 23%, respectively. Besides, the result in [22] was inactive.
